Literature values, collected in US8883841B2, “Oncogenic ras-specific cytotoxic compound and methods of use thereof” (The Board of Regents of the University of Texas System, priority 2005, dated 2014).

Tested on: wild-type MEF
Details: Winter-Vann et al., 2005; cited from earlier work

SMILES: CCCCCCCCn1cc(CC(N)=O)c2cc(-c3cccc(C)c3)ccc21 [Cysmethynil, 2-[5-(3-methylphenyl)-1-octyl-1H-indol-3-yl]acetamide]
- growth inhibition in wild-type MEF: induce Icmt-dependent growth inhibition
